The text below walks through data of ChEMBL document CHEMBL1201862, “PubChem BioAssay data set” (2004).

Some test systems named below: HOP-92; K562; NCI-H522; SF-295; RPMI-8226; SNB-75; IGROV-1; SN12C; MDA-MB-231; HCT-116; UACC-62; SF-539; OVCAR-8; HT-29; MCF7; UO-31; 786-0; HCC 2998; LOX IMVI; KM12.
Assay in all cases: NCI-60 cell line screen, 48 h

Structures are written as SMILES.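 Method: 48-hour compound exposure of cells in 96-well plates, five concentrations, linear interpolation of endpoints. GI50 marks 50% less growth.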 Calls of active or inactive are those of the source. No stated cut-off is given here; in the data, active = GI50 up to about 1.1 µM and inactive = higher.

On to `COc1ccc(C(=O)Nc2ccc3oc(-c4ccccc4)nc3c2)cc1`, for which the GI50 in the assay on HOP-92 is > 100 µM (inactive); in the assay with K562 it was > 100 µM (inactive); with NCI-H522, > 100 µM (inactive); in the assay with SF-295 it was > 100 µM (inactive); in the assay on RPMI-8226, > 100 µM (inactive); in the assay with SNB-75, 29 µM (inactive). Besides, the GI50 in the assay on IGROV-1 was > 100 µM (inactive); with SN12C it was > 100 µM (inactive); in the assay with MDA-MB-231, > 100 µM (inactive); with HCT-116, > 100 µM (inactive); in the assay on UACC-62, > 100 µM (inactive); in the assay with SF-539, 32.5 µM (inactive). The GI50 is 22.3 µM (inactive) in the assay on OVCAR-8; > 100 µM (inactive) with HT-29; > 100 µM (inactive) in the assay on MCF7; 0.227 µM (active) in the assay on UO-31; 92.7 µM (inactive) in the assay on 786-0; > 100 µM (inactive) with HCC 2998. Also, the GI50 in the assay with LOX IMVI and in the assay with KM12 was > 100 µM (inactive) each time.
In the case of `COC1=CC(=O)N(C)C(O)C1(C#N)OC1OC(CO)C(O)C(O)C1O` (stereo not given), the GI50 was > 100 µM (inactive) with HOP-92; > 10 µM (inactive) in the assay on K562; > 100 µM (inactive) with NCI-H522; > 100 µM (inactive) in the assay on SF-295; > 100 µM (inactive) in the assay with RPMI-8226; > 100 µM (inactive) in the assay with SNB-75. In addition, the GI50 in the assay with IGROV-1, with SN12C, with MDA-MB-231, with HCT-116, in the assay on UACC-62 and in the assay on SF-539 was > 100 µM (inactive) throughout. For the same compound, the GI50 in the assay on OVCAR-8 is > 100 µM (inactive); in the assay on HT-29, > 10 µM (inactive); in the assay with MCF7, > 100 µM (inactive); in the assay with UO-31, > 100 µM (inactive); in the assay with 786-0, > 100 µM (inactive); with HCC 2998 it was > 100 µM (inactive). Further, the GI50 with LOX IMVI and in the assay on KM12 was > 100 µM (inactive) throughout.
On to `N#CCCN(C(=O)Nc1ccccc1)[C@H]1CCCC[C@@H]1N(C(=O)Nc1ccccc1)c1ccccc1`, for which the GI50 in the assay with HOP-92 is > 100 µM (inactive); in the assay with K562 it was 49.1 µM (inactive); in the assay with NCI-H522 it was 71.1 µM (inactive); in the assay with SF-295, 55.7 µM (inactive); with RPMI-8226, 36.7 µM (inactive); with SNB-75, 16.7 µM (inactive). The GI50 with IGROV-1 was 61 µM (inactive); in the assay on SN12C, > 100 µM (inactive); with MDA-MB-231, > 100 µM (inactive); in the assay with HCT-116, 66.7 µM (inactive); in the assay with UACC-62 it was > 100 µM (inactive); in the assay with SF-539, > 100 µM (inactive). The GI50 in the assay with OVCAR-8 was > 100 µM (inactive); in the assay with HT-29 it was 43 µM (inactive); in the assay on MCF7, 48.2 µM (inactive); in the assay with UO-31, 54.2 µM (inactive); in the assay on 786-0, > 100 µM (inactive); in the assay with HCC 2998, 73.3 µM (inactive). For the same compound, the GI50 with LOX IMVI is > 100 µM (inactive); in the assay on KM12 it was 32.8 µM (inactive).
`C/C(=C\c1csc(C)n1)[C@@H]1C[C@@H]2O[C@@H]2CCC[C@H](C)[C@H](O)[C@@H](C)C(=O)C(C)(C)[C@@H](O)CC(=O)O1.C/C(=C\c1csc(C)n1)[C@@H]1C[C@@H]2O[C@]2(C)CCC[C@H](C)[C@H](O)[C@@H](C)C(=O)C(C)(C)[C@@H](O)CC(=O)O1`: the GI50 with HOP-92 was 0.0698 µM (active); in the assay with K562 it was 0.00787 µM (active); in the assay on NCI-H522, 0.00076 µM (active); in the assay on SF-295 it was 0.00567 µM (active); with RPMI-8226, 0.00995 µM (active); with SNB-75, 0.00384 µM (active). In addition, the GI50 in the assay on IGROV-1 is 0.00241 µM (active); with SN12C, 0.00562 µM (active); in the assay with MDA-MB-231, 0.00893 µM (active); in the assay with HCT-116, 0.00173 µM (active); with UACC-62, 0.00767 µM (active); with SF-539 it was 0.00511 µM (active). The GI50 in the assay on OVCAR-8 is 0.0048 µM (active); with HT-29 it was 0.00107 µM (active); with MCF7 it was 0.00293 µM (active); in the assay on UO-31, 0.0297 µM (active); with 786-0, 0.005 µM (active); in the assay with HCC 2998, 0.00403 µM (active). Also, the GI50 was 0.00272 µM (active) in the assay on LOX IMVI and 0.00265 µM (active) with KM12.
Regarding `C[N+]1(CCCCN2c3ccccc3Sc3cc(N=[N+]=[N-])ccc32)CCN(C(=O)CCNC(=O)Cc2ccc(C(=O)c3ccccc3)cc2)CC1`, the GI50 in the assay with HOP-92 is 18.9 µM (inactive); in the assay with K562 it was 7.19 µM (inactive); in the assay with NCI-H522, 24.4 µM (inactive); with SF-295 it was 21.7 µM (inactive); with RPMI-8226, 18.7 µM (inactive); in the assay with SNB-75, 20.3 µM (inactive). For the same compound, the GI50 in the assay on IGROV-1 is 23.4 µM (inactive); in the assay on SN12C, 21.2 µM (inactive); in the assay on MDA-MB-231, 25.4 µM (inactive); in the assay on HCT-116, 25.9 µM (inactive); with UACC-62, 28.5 µM (inactive); with SF-539, 32.9 µM (inactive). The GI50 with OVCAR-8 is 34.7 µM (inactive); in the assay with HT-29 it was 18.1 µM (inactive); with MCF7 it was 19.7 µM (inactive); in the assay on UO-31 it was 19.3 µM (inactive); in the assay with 786-0, 27 µM (inactive); in the assay on HCC 2998, 16.1 µM (inactive). In addition, the GI50 with LOX IMVI is 20.3 µM (inactive); in the assay with KM12, 24.3 µM (inactive).
For the compound `C[C@H]1CN[C@@H]2[C@@H](C)[C@H]3[C@@H](C[C@H]4[C@@H]5CC[C@H]6C[C@@H](N)CC[C@]6(C)[C@H]5CC[C@]34C)O[C@@]2(O)C1`, the GI50 was 2.47 µM (inactive) with HOP-92; 1.91 µM (inactive) in the assay on K562; 2.24 µM (inactive) in the assay with NCI-H522; 2.92 µM (inactive) in the assay on SF-295; 2.28 µM (inactive) in the assay on RPMI-8226; 2.44 µM (inactive) with SNB-75. For the same compound, the GI50 in the assay on IGROV-1 is 2.15 µM (inactive); in the assay with SN12C, 1.42 µM (inactive); in the assay with MDA-MB-231, 1.9 µM (inactive); with HCT-116 it was 1.29 µM (inactive); with UACC-62, 1.95 µM (inactive); with SF-539, 1.27 µM (inactive). The GI50 is 2.04 µM (inactive) with OVCAR-8; 1.19 µM (inactive) in the assay with HT-29; 4.18 µM (inactive) in the assay with MCF7; 2.25 µM (inactive) with UO-31; 1.69 µM (inactive) in the assay with 786-0; 1.8 µM (inactive) in the assay on HCC 2998. Besides, the values for the GI50 in the assay with LOX IMVI and in the assay on KM12 were 1.73 µM (inactive) and 1.91 µM (inactive), respectively.
As for `CCc1n[nH]c(=O)n1-c1ccc2ccccc2c1`, the GI50 with HOP-92, with K562, with NCI-H522, in the assay on SF-295, in the assay with RPMI-8226 and in the assay on SNB-75 was > 100 µM (inactive) throughout. The GI50 in the assay on IGROV-1, in the assay on SN12C, in the assay with MDA-MB-231, with HCT-116, with UACC-62 and in the assay on SF-539 was > 100 µM (inactive) throughout. For the same compound, the GI50 in the assay with OVCAR-8, in the assay on HT-29, in the assay with MCF7, in the assay on UO-31, with 786-0 and in the assay with HCC 2998 was > 100 µM (inactive) in each case. The GI50 in the assay with LOX IMVI and in the assay on KM12 was > 100 µM (inactive) throughout.
